Laboratory results published in patent publication US11192877B2, “3-(5-hydroxy-1-oxoisoindolin-2-yl)piperidine-2,6-dione derivatives and uses thereof” (Novartis AG, priority 2018, dated 2021).

What follows are molecules tested against IKZF2 (Helios) (Homo sapiens, UniProt Q96SW2+Q9UKS7) (assay: Prolabel quantification of IKZF2 protein levels in 293GT cells). Details: 24 h, Pro-label assay, 293GT cells, 10 μM, read-out: IKZF2 % protein reduction at 10 μM, 24 h.
Type: cell-based

Sequence of IKZF2 (Helios) (Q9UKS7 whole entry): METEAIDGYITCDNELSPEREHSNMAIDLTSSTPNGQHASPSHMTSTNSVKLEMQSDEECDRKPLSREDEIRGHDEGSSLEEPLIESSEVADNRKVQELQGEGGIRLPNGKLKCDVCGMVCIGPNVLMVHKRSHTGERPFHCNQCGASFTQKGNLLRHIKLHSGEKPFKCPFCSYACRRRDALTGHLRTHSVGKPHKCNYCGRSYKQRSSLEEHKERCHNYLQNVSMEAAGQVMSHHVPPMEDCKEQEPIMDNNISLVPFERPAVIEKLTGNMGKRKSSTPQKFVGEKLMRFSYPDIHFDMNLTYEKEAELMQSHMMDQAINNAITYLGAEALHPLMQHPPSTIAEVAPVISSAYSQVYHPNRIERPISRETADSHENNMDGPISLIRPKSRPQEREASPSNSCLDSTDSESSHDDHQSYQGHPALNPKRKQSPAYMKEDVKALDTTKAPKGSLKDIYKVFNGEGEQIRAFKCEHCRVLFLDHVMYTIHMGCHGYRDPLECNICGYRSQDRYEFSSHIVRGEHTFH
Sequence of IKZF2 (Helios) (Q96SW2 whole entry): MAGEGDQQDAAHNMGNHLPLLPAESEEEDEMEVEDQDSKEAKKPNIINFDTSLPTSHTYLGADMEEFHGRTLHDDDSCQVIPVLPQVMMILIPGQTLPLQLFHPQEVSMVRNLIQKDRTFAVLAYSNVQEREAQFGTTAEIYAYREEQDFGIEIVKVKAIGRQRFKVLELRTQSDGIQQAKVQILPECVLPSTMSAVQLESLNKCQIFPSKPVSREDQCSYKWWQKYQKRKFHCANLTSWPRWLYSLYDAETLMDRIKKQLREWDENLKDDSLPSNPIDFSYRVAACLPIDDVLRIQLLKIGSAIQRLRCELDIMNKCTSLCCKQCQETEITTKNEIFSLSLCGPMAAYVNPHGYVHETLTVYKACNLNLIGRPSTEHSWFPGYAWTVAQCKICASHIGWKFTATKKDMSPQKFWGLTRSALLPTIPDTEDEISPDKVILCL
Sequence of IKZF2 (Helios) (Q16531 whole entry partner): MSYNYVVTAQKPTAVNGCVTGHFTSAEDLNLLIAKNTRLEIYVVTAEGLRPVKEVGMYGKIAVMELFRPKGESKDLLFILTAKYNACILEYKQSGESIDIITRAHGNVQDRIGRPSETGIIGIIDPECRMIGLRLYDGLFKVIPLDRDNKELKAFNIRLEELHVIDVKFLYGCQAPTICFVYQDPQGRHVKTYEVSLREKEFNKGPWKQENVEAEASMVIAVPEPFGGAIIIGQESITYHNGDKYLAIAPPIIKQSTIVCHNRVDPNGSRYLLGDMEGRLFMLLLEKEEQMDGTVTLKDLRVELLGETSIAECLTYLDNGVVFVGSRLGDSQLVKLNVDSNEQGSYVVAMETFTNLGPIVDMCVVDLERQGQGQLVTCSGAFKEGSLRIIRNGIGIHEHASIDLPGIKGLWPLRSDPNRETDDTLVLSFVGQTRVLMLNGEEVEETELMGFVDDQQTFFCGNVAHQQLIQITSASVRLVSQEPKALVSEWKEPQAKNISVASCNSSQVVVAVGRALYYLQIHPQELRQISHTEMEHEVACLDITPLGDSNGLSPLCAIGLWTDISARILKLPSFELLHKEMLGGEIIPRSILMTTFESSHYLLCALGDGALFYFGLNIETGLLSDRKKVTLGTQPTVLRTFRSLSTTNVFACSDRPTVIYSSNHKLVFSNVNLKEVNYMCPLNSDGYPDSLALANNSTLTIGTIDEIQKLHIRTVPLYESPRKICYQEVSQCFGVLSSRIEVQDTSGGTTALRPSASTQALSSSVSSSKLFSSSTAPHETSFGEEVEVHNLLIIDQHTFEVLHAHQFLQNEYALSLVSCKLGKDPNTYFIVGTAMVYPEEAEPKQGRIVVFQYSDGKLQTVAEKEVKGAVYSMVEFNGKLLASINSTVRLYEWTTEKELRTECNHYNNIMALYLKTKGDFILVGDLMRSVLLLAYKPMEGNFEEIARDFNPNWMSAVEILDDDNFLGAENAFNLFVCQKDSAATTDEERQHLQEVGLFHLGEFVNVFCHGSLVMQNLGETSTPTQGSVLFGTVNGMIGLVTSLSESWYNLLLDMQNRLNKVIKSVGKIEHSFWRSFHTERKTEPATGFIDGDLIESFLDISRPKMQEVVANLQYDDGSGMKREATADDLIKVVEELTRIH

| Compound | IKZF2 % protein reduction at 10 µM |
| --- | --- |
| O=C1CCC(N2Cc3cc(O[C@H]4CCCC[C@@H]4N4CC(Oc5ccccc5Cl)C4)ccc3C2=O)C(=O)N1 (stereo partly drawn) [I-112, 3-(5-(((1S,2S)-2-(3-(2-chlorophenoxy)azetidin-1-yl)cyclohexyl)oxy)-1-oxoisoindolin-2-yl)piperidine-2,6-dione] | 95% |
| COc1ccccc1OC1CN([C@H]2CCCC[C@@H]2Oc2ccc3c(c2)CN(C2CCC(=O)NC2=O)C3=O)C1 (stereo partly drawn) [I-113, 3-(5-(((1S,2S)-2-(3-(2-methoxyphenoxy)azetidin-1-yl)cyclohexyl)oxy)-1-oxoisoindolin-2-yl)piperidine-2,6-dione] | 93% |
| O=C1CCC(N2Cc3cc(O[C@H]4CCCC[C@@H]4NCc4cnc5ccnn5c4)ccc3C2=O)C(=O)N1 (stereo partly drawn) [I-114, 3-(1-oxo-5-(((1S,2S)-2-((pyrazolo[1,5-a]pyrimidin-6-ylmethyl)amino)cyclohexyl)oxy)isoindolin-2-yl)piperidine-2,6-dione] | 54% |
| O=C1CCC(N2Cc3cc(O[C@H]4CCCC[C@@H]4NC4CCC(F)(F)CC4)ccc3C2=O)C(=O)N1 (stereo partly drawn) [I-115, 3-(5-(((1S,2S)-2-((4,4-difluorocyclohexyl)amino)cyclohexyl)oxy)-1-oxoisoindolin-2-yl)piperidine-2,6-dione] | 90% |
| O=C1CCC(N2Cc3cc(O[C@H]4CCCC[C@@H]4NCc4ccc(F)cc4F)ccc3C2=O)C(=O)N1 (stereo partly drawn) [I-116, 3-(5-(((1S,2S)-2-((2,4-difluorobenzyl)amino)cyclohexyl)oxy)-1-oxoisoindolin-2-yl)piperidine-2,6-dione] | 65% |
| N#CC12CC(CN[C@H]3CCCC[C@@H]3Oc3ccc4c(c3)CN(C3CCC(=O)NC3=O)C4=O)(C1)C2 (stereo partly drawn) [I-120, 3-((((1S,2S)-2-((2-(2,6-dioxopiperidin-3-yl)-1-oxoisoindolin-5-yl)oxy)cyclohexyl)amino)methyl)bicyclo[1.1.1]pentane-1-carbonitrile] | 66% |
| O=C1CCC(N2Cc3cc(O[C@H]4CCCC[C@@H]4N4CC(Oc5cccc(F)c5)C4)ccc3C2=O)C(=O)N1 (stereo partly drawn) [I-121, 3-(5-(((1S,2S)-2-(3-(3-fluorophenoxy)azetidin-1-yl)cyclohexyl)oxy)-1-oxoisoindolin-2-yl)piperidine-2,6-dione] | 94% |
| O=C1CCC(N2Cc3cc(O[C@H]4CCCC[C@@H]4NCC4CC(F)(F)C4)ccc3C2=O)C(=O)N1 (stereo partly drawn) [I-122, 3-(5-(((1S,2S)-2-(((3,3-difluorocyclobutyl)methyl)amino)cyclohexyl)oxy)-1-oxoisoindolin-2-yl)piperidine-2,6-dione] | 84% |
| COC1CCC(CN[C@H]2CCCC[C@@H]2Oc2ccc3c(c2)CN(C2CCC(=O)NC2=O)C3=O)CC1 (stereo partly drawn) [I-123, 3-(5-(((1S,2S)-2-(((4-methoxycyclohexyl)methyl)amino)cyclohexyl)oxy)-1-oxoisoindolin-2-yl)piperidine-2,6-dione] | 82% |
| N#Cc1ccc(CN[C@H]2CCCC[C@@H]2Oc2ccc3c(c2)CN(C2CCC(=O)NC2=O)C3=O)cc1 (stereo partly drawn) [I-129, 4-((((1S,2S)-2-((2-(2,6-dioxopiperidin-3-yl)-1-oxoisoindolin-5-yl)oxy)cyclohexyl)amino)methyl)benzonitrile] | 70% |
| CN(Cc1ccc(C#N)cc1)[C@H]1CCCC[C@@H]1Oc1ccc2c(c1)CN(C1CCC(=O)NC1=O)C2=O (stereo partly drawn) [I-130, 4-((((1S,2S)-2-((2-(2,6-dioxopiperidin-3-yl)-1-oxoisoindolin-5-yl)oxy)cyclohexyl)(methyl)amino)methyl)benzonitrile] | 50% |
| CC(C)N[C@H]1CCCC[C@@H]1Oc1ccc2c(c1)CN(C1CCC(=O)NC1=O)C2=O (stereo partly drawn) [I-131, 3-(5-(((1S,2S)-2-(isopropylamino)cyclohexyl)oxy)-1-oxoisoindolin-2-yl)piperidine-2,6-dione] | 91% |
| N#Cc1cccc(CN[C@H]2CCCC[C@@H]2Oc2ccc3c(c2)CN(C2CCC(=O)NC2=O)C3=O)c1 (stereo partly drawn) [I-132, 3-((((1S,2S)-2-((2-(2,6-dioxopiperidin-3-yl)-1-oxoisoindolin-5-yl)oxy)cyclohexyl)amino)methyl)benzonitrile] | 80% |
| O=C1CCC(N2Cc3cc(O[C@H]4CCCC[C@@H]4NCC45CC(F)(C4)C5)ccc3C2=O)C(=O)N1 (stereo partly drawn) [I-133, 3-(5-(((1S,2S)-2-(((3-fluorobicyclo[1.1.1]pentan-1-yl)methyl)amino)cyclohexyl)oxy)-1-oxoisoindolin-2-yl)piperidine-2,6-dione] | 81% |
| O=C1CCC(N2Cc3cc(O[C@H]4CCCC[C@@H]4N4CC(Oc5cccnc5)C4)ccc3C2=O)C(=O)N1 (stereo partly drawn) [I-135, 3-(1-oxo-5-(((1S,2S)-2-(3-(pyridin-3-yloxy)azetidin-1-yl)cyclohexyl)oxy)isoindolin-2-yl)piperidine-2,6-dione] | 92% |
| CCN(CC12CC(F)(C1)C2)[C@H]1CCC[C@@H]1Oc1ccc2c(c1)CN(C1CCC(=O)NC1=O)C2=O (stereo partly drawn) [I-136, 3-(5-(((1S,2S)-2-(ethyl((3-fluorobicyclo[1.1.1]pentan-1-yl)methyl)amino)cyclopentyl)oxy)-1-oxoisoindolin-2-yl)piperidine-2,6-dione] | 58% |
| O=C1CCN([C@H]2CCC[C@@H]2Oc2ccc3c(c2)CN(C2CCC(=O)NC2=O)C3=O)CC1 (stereo partly drawn) [I-137, 3-(1-oxo-5-(((1S,2S)-2-(4-oxopiperidin-1-yl)cyclopentyl)oxy)isoindolin-2-yl)piperidine-2,6-dione] | 80% |
| CC1(O)CCN([C@H]2CCC[C@@H]2Oc2ccc3c(c2)CN(C2CCC(=O)NC2=O)C3=O)CC1 (stereo partly drawn) [I-138, 3-(5-(((1S,2S)-2-(4-hydroxy-4-methylpiperidin-1-yl)cyclopentyl)oxy)-1-oxoisoindolin-2-yl)piperidine-2,6-dione] | 83% |
| O=C1CCC(N2Cc3cc(O[C@H]4CCC[C@@H]4N4CCC(O)C4)ccc3C2=O)C(=O)N1 (stereo partly drawn) [I-139, 3-(5-(((1S,2S)-2-(3-hydroxypyrrolidin-1-yl)cyclopentyl)oxy)-1-oxoisoindolin-2-yl)piperidine-2,6-dione] | 83% |
| CC1(O)CN([C@H]2CCC[C@@H]2Oc2ccc3c(c2)CN(C2CCC(=O)NC2=O)C3=O)C1 (stereo partly drawn) [I-141, 3-(5-(((1S,2S)-2-(3-hydroxy-3-methylazetidin-1-yl)cyclopentyl)oxy)-1-oxoisoindolin-2-yl)piperidine-2,6-dione] | 77% |
| CC(C)CN[C@H]1CCC[C@@H]1Oc1ccc2c(c1)CN(C1CCC(=O)NC1=O)C2=O (stereo partly drawn) [I-142, 3-(5-(((1S,2S)-2-(isobutylamino)cyclopentyl)oxy)-1-oxoisoindolin-2-yl)piperidine-2,6-dione] | 83% |
| CCN(C)[C@H]1CCC[C@@H]1Oc1ccc2c(c1)CN(C1CCC(=O)NC1=O)C2=O (stereo partly drawn) [I-143, 3-(5-(((1S,2S)-2-(ethyl(methyl)amino)cyclopentyl)oxy)-1-oxoisoindolin-2-yl)piperidine-2,6-dione] | 81% |
| O=C1CCC(N2Cc3cc(O[C@H]4CCC[C@@H]4N4C[C@H]5COC[C@H]5C4)ccc3C2=O)C(=O)N1 (stereo partly drawn) [I-144, 3-(1-oxo-5-(((1S,2S)-2-((3aR,6aS)-tetrahydro-1H-furo[3,4-c]pyrrol-5(3H)-yl)cyclopentyl)oxy)isoindolin-2-yl)piperidine-2,6-dione] | 88% |
